From patent US11834663B2, “Fibrotic treatment” (Monash University, priority 2015, dated 2023)
Marks after values point to notes of the source that are not given here.

Tested on: cardiac cytokine protein levels
Test: Cardiac cytokine protein levels by Bio-Plex multiplex assay in aged WT mice
Type: in vivo, mouse
Method: There are 8 different sets of in vivo experiments in this study: • A) Phenotypic characterisation of the heart and blood vessels in global IRAP knockout mice and their WT controls treated for 4 weeks with Angiotensin (Ang) II (800 ng/kg/min; s.c.) where mouse hearts and blood vessels were compared to tissue obtained from young WT and IRAP^−/− mice treated with saline. • B) Prevention of Ang II-induced changes in the cardiovascular system following IRAP inhibitor treatment. In the prevention model, WT mice were treated with Ang II (800 ng/kg/min; s.c.)±the IRAP inhibitor (HFI-419; 500 ng/kg/min for 28 days) or HFI-vehicle (1 DMSO:3 HBC). • C) Phenotypic characterisation of the aged heart, kidney and blood vessels in the global IRAP knockout mice where aged WT and IRAP^−/− mouse hearts, kidneys and blood vessels were compared to tissue obtained from young WT and IRAP^−/− mice. • D) Reversal of the age-induced changes in the cardiovascular system following IRAP inhibitor treatment. In the reversal model, aged WT mice were treated with either saline, IRAP inhibitor (HFI-419 at 500 ng/kg/min; compound 1 at 500 ng/kg/min; compound 2 at 50 ng/kg/min) or HFI-vehicle (1 DMSO: 3 HBC) for 4 weeks. • E) Prevention of ischemic-reperfusion injury in isolated hearts taken from aged global IRAP knockout mice and aged IRAP inhibitor (HFI-419 at 500 ng/kg/min; s.c.) treated WT mice compared to age-matched vehicle-treated (1 DMSO:3 HBC; s.c.) WT controls. • F) Phenotypic characterization of cardiac function using echocardiography in the aged global IRAP knockout mice compared to aged and young WT mice. • G) Phenotypic characterization of liver steatosis in IRAP knockout mice in a high fat diet (HFD) model. • H) Reversal of the salt-induced fibrosis in the liver following IRAP inhibitor treatment.
The levels of cytokines in the heart ventricles and apex were detected by using the Bio-Plex multiplex assay (Bio-rad). Tissues were snap-frozen and homogenized with a Bio-Plex cell lysis kit (Biorad) according to the manufacturer's instructions. Briefly, tissues were washed once with 300 μl of wash buffer and homogenized in lysing solutions using Tissue Lyser (Qiagen). Samples were left on ice for 30 min and centrifuged at 6,000×g for 20 min at 4° C. Supernatant was collected and protein content was determined using Biorad protein assay (Biorad). 500 μg/ml of protein were used to detect the levels of cytokines. A panel of Bio-Plex Pro™ Mouse Cytokine Standard 23-Plex, Group I (IL-1α, IL-1β, IL-2, IL-3, IL-4, IL-5, IL-6, IL-9, IL-10, IL-12(p40), IL-12(p70), IL-13, IL-17A, Eotaxin, G-CSF, GM-CSF, IFN-γ, KC, MCP-1, MIP-1α, MIP-1β, RANTES, TNFα) was used, containing 23 different antibodies covalently coupled to the beads. 50 μl of sample (500 μg/ml) or known standard (200-900 μg/ml) was added to wells of a 96-well plate which was pre-coated with the diluted coupled beads specific for each antibody and incubated at RT with shaking at 300 RPM for 30 min in the dark. After washing away any unbound substances, biotinylated detection antibodies were added to create a sandwich complex and the plate was incubated for 30 min with shaking at 300 RPM in the dark at RT. Following three washes, the final detection complex was formed with the addition of streptavidin-phycoerythrin conjugate and incubated for 10 min in the dark at RT with shaking at 300 RPM. Following 3 washes with […], beads were resuspended in 125 μl of assay buffer. The samples were read using Bio-Plex MAGPIX Multiplex Reader (Bio-Plex Suspension System). Data were calculated by the Bio-Plex Manager software.

[1] = hearts of HFI-419-treated aged WT mice, mean ± s.e.m
[2] = relative ratio to mean of vehicle-treated aged WT

`CCOC(=O)C1=C(NC(C)=O)Oc2cc(O)ccc2C1c1cccnc1` (centres unmarked) [HFI-419] was tested, and the “pro-inflammatory cytokines in heart” value (aged WT mice, HFI-419 4 weeks vs vehicle, FIG. 14, Table 1) was “did not increase”, the “anti-inflammatory cytokines in heart, including IL-4, IL-9 and IL-12p40” value (aged WT mice, HFI-419 4 weeks vs vehicle, Table 1) was “marked increases” and the “CCL-3 (MIP-1a) cardiac protein level” value [1] was 2.493 ± 0.35 pg/mL. The “CCL-4 (MIP-1b) cardiac protein level” value [1] was 92.74 ± 10.92 pg/mL, the “CCL-5 (RANTES) cardiac protein level” value [1] was 2.839 ± 0.21 pg/mL and the “CCL-11 (Eotaxin) cardiac protein level” value [1] was 140.3 ± 8.18 pg/mL. The “CXCL-1 (KC) cardiac protein level” value [1] was 6.859 ± 0.34 pg/mL, the “G-CSF cardiac protein level” value [1] was 1.912 ± 0.08 pg/mL and the “GM-CSF cardiac protein level” value [1] was 38.18 ± 1.37 pg/mL. For the same molecule, the “IL-1a cardiac protein level” value [1] was 7.61 ± 0.56 pg/mL, the “IL-1b cardiac protein level” value [1] was 69.83 ± 3.75 pg/mL and the “IL-4 cardiac protein level” value [1] was 2.676 ± 0.06 pg/mL. For the same molecule, the “IL-5 cardiac protein level” value [1] was 3.96 ± 0.14 pg/mL, the “IL-6 cardiac protein level” value [1] was 2.766 ± 0.15 pg/mL and the “IL-9 cardiac protein level” value [1] was 557.8 ± 31.03 pg/mL. The “IL-10 cardiac protein level” value [1] was 40.13 ± 1.36 pg/mL, the “IL-12 p40 cardiac protein level” value [1] was 4.887 ± 0.28 pg/mL and the “IL-12 p70 cardiac protein level” value [1] was 23.49 ± 1.83 pg/mL. For the same molecule, the “IL-13 cardiac protein level” value [1] was 90.19 ± 2.93 pg/mL, the “IL-17A cardiac protein level” value [1] was 8.068 ± 0.29 pg/mL and the “L-2 cardiac protein level” value [1] was 5.849 ± 0.78 pg/mL. The “M-CSF (IL-3) cardiac protein level” value [1] was 1.562 ± 0.11 pg/mL, the “TNF-a cardiac protein level” value [1] was 219.7 ± 9.76 pg/mL and the “CCL-3 (MIP-1a) Ratio of HFI to Vehicle” value [2] was 0.88. The “CCL-4 (MIP-1b) Ratio of HFI to Vehicle” value [2] was 0.78, the “CCL-5 (RANTES) Ratio of HFI to Vehicle” value [2] was 1.03 and the “CCL-11 (Eotaxin) Ratio of HFI to Vehicle” value [2] was 1.29. For the same molecule, the “CXCL-1 (KC) Ratio of HFI to Vehicle” value [2] was 1.18, the “G-CSF Ratio of HFI to Vehicle” value [2] was 1.02 and the “GM-CSF Ratio of HFI to Vehicle” value [2] was 0.99. The “IL-1a Ratio of HFI to Vehicle” value [2] was 1.03, the “IL-1b Ratio of HFI to Vehicle” value [2] was 1.16 and the “IL-4 Ratio of HFI to Vehicle” value [2] was 1.61**. For the same molecule, the “IL-5 Ratio of HFI to Vehicle” value [2] was 0.98, the “IL-6 Ratio of HFI to Vehicle” value [2] was 0.98 and the “IL-9 Ratio of HFI to Vehicle” value [2] was 1.19*. The “IL-10 Ratio of HFI to Vehicle” value [2] was 1.09, the “IL-12 p40 Ratio of HFI to Vehicle” value [2] was 1.31 and the “IL-12 p70 Ratio of HFI to Vehicle” value [2] was 0.88. For the same molecule, the “IL-13 Ratio of HFI to Vehicle” value [2] was 0.96, the “IL-17A Ratio of HFI to Vehicle” value [2] was 0.95 and the “L-2 Ratio of HFI to Vehicle” value [2] was 1.12. For the same molecule, the “M-CSF (IL-3) Ratio of HFI to Vehicle” value [2] was 1.02 and the “TNF-a Ratio of HFI to Vehicle” value [2] was 0.92.
